Each structure is given as a SMILES string.

Format in all cases: in vivo
One assay concerns Monochoria vaginalis. Briefly: Test Example 2: herbicidal activity, application during weed generation in submerged conditions (symbol C). As to conditions: Table 23; application herbicide amount 320 g/ha; grade 0-5 by criteria of Test Example 1. The essentials: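 Flooded-soil post-emergence test: emulsion of compound, water-diluted to target rate, applied to paddy water surface at 1–2 leaf stage of mixed-sown weeds (alluvial soil, 4 cm water, 25–30° C. greenhouse); visual rating 3 weeks after application.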

Assay [1] concerns Echinochloa crus-galli var. crus-galli. Briefly: Test Example 4: herbicidal effect by soil treatment (symbol H). An excerpt:
Herbicidal Effect Test by Soil Treatment
Sterilized diluvial soil was placed in a plastic box having a length of 21 cm, a width of 13 cm, and a depth of 7 cm. Each of the seeds of Digitaria ciliaris, Setaria viridis, Echinochloa crus-galli var. crus-galli, Avena fatua, Alopecurus myosuroides, Lolium multiflorum Lam., Apera spica-venti, Abutilon theophrasti, Amaranthus retroflexus, Chenopodium album, Stellaria media, Galium spurium, Veronica persica, corn, soybean, rice, wheat, beet, and rapeseed was sowed in a spot-like manner and was covered with the soil of a thickness of about 1.5 cm. Subsequently, the emulsion agent of the compound present invention prepared in accordance with Formulation Example 2 was diluted with water so as to be a predetermined herbicide amount and the diluted emulsion agent was uniformly applied to the surface of the soil with a small-size spray. The plastic box was placed in a greenhouse of 25° C. to 30° C. to grow plant. 3 weeks later from the herbicide application, the effect to each plant was investigated in accordance with the criteria of Test Example 1.

The test system is the same in assay [2]. Briefly: Test Example 5: herbicidal effect by foliage application, plastic box (symbol H). As to conditions: 320 g/ha, 3 weeks after application. The essentials: (§1)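 Leaf-applied emulsion, water-diluted to a preset herbicide dose, on two-week-old seedlings raised in a 25° C. to 30° C. greenhouse; injury rated at 3 weeks using earlier criteria.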
Another assay has as its system Abutilon theophrasti. Briefly: Test Example 5: herbicidal effect by foliage application, plastic box (symbol M). As to conditions: 320 g/ha, 3 weeks after application. The essentials:
as §1

Another assay has as its system Stellaria media. As to the kind of experiment: Test Example 5: herbicidal effect by foliage application, plastic box (symbol P). Particulars: 320 g/ha, 3 weeks after application. The essentials: as §1
[3] abbreviates: application herbicide amount 320 g/ha.

For `COCCON=C(CC1CC(O)=C(c2c(C)cc(Br)cc2C)C1=O)C1CC1` (stereo not shown) [9-019], the “Herbicidal effect grade, C: Monochoria vaginalis” value (shortened to “Herbicidal effect grade, C”) in the assay on Monochoria vaginalis was 0 (Herbicidal ratio of 5% or lower (almost no effect)). Besides, in assay [1] (setting [3]), the “Herbicidal effect grade, H: Echinochloa crus-galli var. crus-galli” value (from here on “Herbicidal effect grade, H”) is 0 (Herbicidal ratio of 5% or lower (almost no effect)). Moreover, the “H: Echinochloa crus-galli var. crus-galli, herbicidal effect grade” value in assay [2] is on record as 5 (Herbicidal ratio of 90% or more (almost completely withered)). For the same compound, the “M: Abutilon theophrasti, herbicidal effect grade” value in the assay with Abutilon theophrasti is on record as 0 (Herbicidal ratio of 5% or lower (almost no effect)). Besides, in the assay on Stellaria media, the “P: Stellaria media, herbicidal effect grade” value is listed as 0 (Herbicidal ratio of 5% or lower (almost no effect)).

Consider `CON=C(C)CC1C(O)=C(c2c(C)cc(C)cc2C)C(=O)C1C` (mixture of isomers) [12-002], for which the “Herbicidal effect grade, C” value in the assay on Monochoria vaginalis is 1 (Herbicidal ratio of 5% or higher and lower than 20%). In addition, the “Herbicidal effect grade, H” value in assay [1] (setting [3]) is given as 5 (Herbicidal ratio of 90% or more (almost completely withered)). Moreover, in assay [2], the “H: Echinochloa crus-galli var. crus-galli, herbicidal effect grade” value is given as 5 (Herbicidal ratio of 90% or more (almost completely withered)). Moreover, the “M: Abutilon theophrasti, herbicidal effect grade” value with Abutilon theophrasti was 1 (Herbicidal ratio of 5% or higher and lower than 20%). For the same compound, in the assay with Stellaria media, the “P: Stellaria media, herbicidal effect grade” value was 4 (Herbicidal ratio of 70% or higher and lower than 90%).

`CC(CC1CC(O)=C(c2c(C)cc(C)cc2C)C1=O)=NOCC[S+](C)[O-]` (stereo not shown) [1-125]: the “Herbicidal effect grade, C” value in the assay with Monochoria vaginalis is 0 (Herbicidal ratio of 5% or lower (almost no effect)). Further, the “H: Echinochloa crus-galli var. crus-galli, herbicidal effect grade” value in assay [1] (320 g/ha) is 5 (Herbicidal ratio of 90% or more (almost completely withered)). Further, the “H: Echinochloa crus-galli var. crus-galli, herbicidal effect (criteria 0-5)” value in assay [2] is reported as 5 (Herbicidal ratio of 90% or more (almost completely withered)). Besides, the “M: Abutilon theophrasti, herbicidal effect (criteria 0-5)” value in the assay on Abutilon theophrasti is reported as 0 (Herbicidal ratio of 5% or lower (almost no effect)). The “P: Stellaria media, herbicidal effect (criteria 0-5)” value (shortened to “P: Stellaria media … (criteria 0-5)”) in the assay on Stellaria media is 2 (Herbicidal ratio of 20% or higher and lower than 40%).

For `CC(CC1CC(O)=C(c2c(C)cc(C)cc2C)C1=O)=NOCC#N` (stereo not shown) [1-102], the “Herbicidal effect grade, C” value in the assay on Monochoria vaginalis was 2 (Herbicidal ratio of 20% or higher and lower than 40%). In assay [1] (320 g/ha), the “H: Echinochloa crus-galli var. crus-galli, herbicidal effect grade” value is on record as 5 (Herbicidal ratio of 90% or more (almost completely withered)). In addition, the “H: Echinochloa crus-galli var. crus-galli, herbicidal effect (criteria 0-5)” value in assay [2] is 5 (Herbicidal ratio of 90% or more (almost completely withered)). For the same compound, the “M: Abutilon theophrasti, herbicidal effect (criteria 0-5)” value with Abutilon theophrasti is listed as 0 (Herbicidal ratio of 5% or lower (almost no effect)). Further, the “P: Stellaria media … (criteria 0-5)” value with Stellaria media is listed as 0 (Herbicidal ratio of 5% or lower (almost no effect)).

On to `CC#Cc1cc(C)c(C2=C(O)CC(CC(=NOCCOC)C3CC3)C2=O)c(C)c1` (stereo not shown) [9-021], for which the “Herbicidal effect grade, H” value in assay [1] (setting [3]) was 5 (Herbicidal ratio of 90% or more (almost completely withered)). Moreover, the “H: Echinochloa crus-galli var. crus-galli, herbicidal effect grade” value in assay [2] is on record as 5 (Herbicidal ratio of 90% or more (almost completely withered)). The “M: Abutilon theophrasti, herbicidal effect grade” value in the assay on Abutilon theophrasti was 2 (Herbicidal ratio of 20% or higher and lower than 40%). For the same compound, the “P: Stellaria media, herbicidal effect grade” value in the assay on Stellaria media was 1 (Herbicidal ratio of 5% or higher and lower than 20%).

Turning to `CON=C(C)CC1CC(OC(=O)C(C)(C)C)=C(c2c(C)cc(C)cc2C)C1=O` (stereo not shown) [1-004, 2-mesityl-4-{2-(methoxyimino)propyl}-3-oxocyclopent-1-en-1-yl pivalate], the “Herbicidal effect grade, C” value in the assay on Monochoria vaginalis is 4 (Herbicidal ratio of 70% or higher and lower than 90%). In addition, the “H (Echinochloa crus-galli var. crus-galli) herbicidal effect grade” value in assay [1] (setting [3]) was 5 (Herbicidal ratio of 90% or more (almost completely withered)). In assay [2], the “H: Echinochloa crus-galli var. crus-galli, herbicidal effect grade” value is on record as 5 (Herbicidal ratio of 90% or more (almost completely withered)). In addition, the “M: Abutilon theophrasti, herbicidal effect grade” value in the assay with Abutilon theophrasti was 4 (Herbicidal ratio of 70% or higher and lower than 90%).

Turning to `CON=C(C)CC1CC(OC(=O)N(C)CCCCCl)=C(c2c(C)cc(C)cc2C)C1=O` (stereo not shown) [1-126], the “H: Echinochloa crus-galli var. crus-galli, herbicidal effect grade” value in assay [1] (320 g/ha) is recorded as 0 (Herbicidal ratio of 5% or lower (almost no effect)). Also, in assay [2], the “H: Echinochloa crus-galli var. crus-galli, herbicidal effect (criteria 0-5)” value was 4 (Herbicidal ratio of 70% or higher and lower than 90%). The “M: Abutilon theophrasti, herbicidal effect (criteria 0-5)” value in the assay with Abutilon theophrasti is reported as 0 (Herbicidal ratio of 5% or lower (almost no effect)). Also, the “P: Stellaria media … (criteria 0-5)” value in the assay on Stellaria media is 0 (Herbicidal ratio of 5% or lower (almost no effect)).

For `CC(CC1CC(O)=C(c2c(C)cc(C)cc2C)C1=O)=NOCc1ccccc1[N+](=O)[O-]` (stereo not shown) [1-119], the “H: Echinochloa crus-galli var. crus-galli, herbicidal effect grade” value in assay [1] (320 g/ha) was 5 (Herbicidal ratio of 90% or more (almost completely withered)). In addition, the “H: Echinochloa crus-galli var. crus-galli, herbicidal effect (criteria 0-5)” value in assay [2] is 5 (Herbicidal ratio of 90% or more (almost completely withered)). Further, the “M: Abutilon theophrasti, herbicidal effect (criteria 0-5)” value in the assay on Abutilon theophrasti is 1 (Herbicidal ratio of 5% or higher and lower than 20%). In addition, in the assay on Stellaria media, the “P: Stellaria media … (criteria 0-5)” value is 1 (Herbicidal ratio of 5% or higher and lower than 20%).

`CC(CC1CC(OC(=O)N2CCOCC2)=C(c2c(C)cc(-c3ccc(Cl)cc3)cc2C)C1=O)=NOCC(F)(F)F` (mixture of isomers) [9-025]: the “Herbicidal effect grade, H” value in assay [1] (setting [3]) is recorded as 0 (Herbicidal ratio of 5% or lower (almost no effect)). The “H: Echinochloa crus-galli var. crus-galli, herbicidal effect grade” value in assay [2] was 1 (Herbicidal ratio of 5% or higher and lower than 20%). Besides, the “M: Abutilon theophrasti, herbicidal effect grade” value in the assay on Abutilon theophrasti is reported as 0 (Herbicidal ratio of 5% or lower (almost no effect)). In addition, the “P: Stellaria media, herbicidal effect grade” value with Stellaria media was 0 (Herbicidal ratio of 5% or lower (almost no effect)).

On to `CC#Cc1cc(C)c(C2=C(O)CC(CC(=NOCC(F)(F)F)C(C)C)C2=O)c(C)c1` (stereo not shown) [9-015], for which the “Herbicidal effect grade, H” value in assay [1] (setting [3]) is reported as 5 (Herbicidal ratio of 90% or more (almost completely withered)). Also, the “H: Echinochloa crus-galli var. crus-galli, herbicidal effect grade” value in assay [2] is 5 (Herbicidal ratio of 90% or more (almost completely withered)). Also, the “M: Abutilon theophrasti, herbicidal effect grade” value with Abutilon theophrasti is given as 0 (Herbicidal ratio of 5% or lower (almost no effect)). The “P: Stellaria media, herbicidal effect grade” value with Stellaria media is 3 (Herbicidal ratio of 40% or higher and lower than 70%).

Consider `COC(=O)c1ccc(CON=C(C)CC2CC(O)=C(c3c(C)cc(C)cc3C)C2=O)cc1` (stereo not shown) [1-118], for which the “H: Echinochloa crus-galli var. crus-galli, herbicidal effect grade” value in assay [1] (320 g/ha) was 4 (Herbicidal ratio of 70% or higher and lower than 90%). Moreover, the “H: Echinochloa crus-galli var. crus-galli, herbicidal effect (criteria 0-5)” value in assay [2] is 2 (Herbicidal ratio of 20% or higher and lower than 40%). Besides, in the assay on Abutilon theophrasti, the “M: Abutilon theophrasti, herbicidal effect (criteria 0-5)” value was 0 (Herbicidal ratio of 5% or lower (almost no effect)). Besides, the “P: Stellaria media … (criteria 0-5)” value in the assay with Stellaria media is 3 (Herbicidal ratio of 40% or higher and lower than 70%).

Regarding `CON=C(CC1CC(O)=C(c2c(C)cc(-n3cc(Cl)cn3)cc2C)C1=O)C1CC1` (stereo not shown) [9-007], the “Herbicidal effect grade, H” value in assay [1] (setting [3]) is 3 (Herbicidal ratio of 40% or higher and lower than 70%). For the same compound, the “H: Echinochloa crus-galli var. crus-galli, herbicidal effect grade” value in assay [2] was 5 (Herbicidal ratio of 90% or more (almost completely withered)). Besides, the “M: Abutilon theophrasti, herbicidal effect grade” value in the assay with Abutilon theophrasti is on record as 0 (Herbicidal ratio of 5% or lower (almost no effect)). In addition, the “P: Stellaria media, herbicidal effect grade” value in the assay on Stellaria media is 3 (Herbicidal ratio of 40% or higher and lower than 70%).

For `CON=C(CC1CC(OC(=O)N2CCOCC2)=C(c2c(C)cc(C)cc2OC)C1=O)C1CC1` (mixture of isomers) [13-005], the “H: Echinochloa crus-galli var. crus-galli, herbicidal effect grade” value was 1 (Herbicidal ratio of 5% or higher and lower than 20%) in assay [1] (setting [3]); 5 (Herbicidal ratio of 90% or more (almost completely withered)) in assay [2]. Moreover, in the assay with Abutilon theophrasti, the “M: Abutilon theophrasti, herbicidal effect grade” value is 0 (Herbicidal ratio of 5% or lower (almost no effect)). Also, in the assay with Stellaria media, the “P: Stellaria media, herbicidal effect grade” value is listed as 0 (Herbicidal ratio of 5% or lower (almost no effect)).

Regarding `CC#Cc1cc(C)c(C2=C(O)CC(CC(=NOC)C(C)C)C2=O)c(C)c1` (stereo not shown) [9-006], the “Herbicidal effect grade, H” value in assay [1] (setting [3]) was 5 (Herbicidal ratio of 90% or more (almost completely withered)). Moreover, in assay [2], the “H: Echinochloa crus-galli var. crus-galli, herbicidal effect grade” value is 5 (Herbicidal ratio of 90% or more (almost completely withered)). Also, the “M: Abutilon theophrasti, herbicidal effect grade” value in the assay with Abutilon theophrasti was 0 (Herbicidal ratio of 5% or lower (almost no effect)). In the assay on Stellaria media, the “P: Stellaria media, herbicidal effect grade” value was 3 (Herbicidal ratio of 40% or higher and lower than 70%).

On to `CON=C(C)CC1CC(OC(=O)C#C[Si](C)(C)C)=C(c2c(C)cc(C)cc2C)C1=O` (stereo not shown) [1-096], for which, in assay [1] (320 g/ha), the “H: Echinochloa crus-galli var. crus-galli, herbicidal effect grade” value is 4 (Herbicidal ratio of 70% or higher and lower than 90%). Also, the “H: Echinochloa crus-galli var. crus-galli, herbicidal effect (criteria 0-5)” value in assay [2] was 5 (Herbicidal ratio of 90% or more (almost completely withered)). Moreover, the “M: Abutilon theophrasti, herbicidal effect (criteria 0-5)” value with Abutilon theophrasti was 4 (Herbicidal ratio of 70% or higher and lower than 90%). The “P: Stellaria media … (criteria 0-5)” value in the assay with Stellaria media is 2 (Herbicidal ratio of 20% or higher and lower than 40%).
